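Method: 48-hour compound exposure of cells in 96-well plates, five concentrations, linear interpolation of endpoints. Definition used: TGI = concentration required for complete inhibition of growth.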
Columns and labels:
Experiment in all cases: NCI-60 cell line screen, 48 h
786-0 renal = system: 786-0 renal
A549 NSCLC = system: A549 NSCLC
ACHN renal = system: ACHN renal
BT-549 breast = system: BT-549 breast
CAKI-1 renal = system: CAKI-1 renal
CCRF-CEM leukemia = system: CCRF-CEM leukemia
COLO 205 colon = system: COLO 205 colon
DU-145 prostate = system: DU-145 prostate
EKVX NSCLC = system: EKVX NSCLC
HCC-2998 colon = system: HCC-2998 colon
HCT-116 colon = system: HCT-116 colon
HCT-15 colon = system: HCT-15 colon
HL-60(TB) leukemia = system: HL-60(TB) leukemia
HOP-62 NSCLC = system: HOP-62 NSCLC
HOP-92 NSCLC = system: HOP-92 NSCLC
HS 578T breast = system: HS 578T breast
HT29 colon = system: HT29 colon
IGROV1 ovarian = system: IGROV1 ovarian
K-562 leukemia = system: K-562 leukemia
KM12 colon = system: KM12 colon
LOX IMVI melanoma = system: LOX IMVI melanoma
M14 melanoma = system: M14 melanoma
MALME-3M melanoma = system: MALME-3M melanoma
MCF7 breast = system: MCF7 breast
MDA-MB-231 breast = system: MDA-MB-231 breast
MDA-MB-435 = system: MDA-MB-435
MDA-N = system: MDA-N
NCI-H226 lung = system: NCI-H226 lung
NCI-H23 lung = system: NCI-H23 lung
NCI-H460 lung = system: NCI-H460 lung
NCI-H522 lung = system: NCI-H522 lung
NCI/ADR-RES ovarian = system: NCI/ADR-RES ovarian
OVCAR-3 ovarian = system: OVCAR-3 ovarian
OVCAR-4 ovarian = system: OVCAR-4 ovarian
OVCAR-5 ovarian = system: OVCAR-5 ovarian
OVCAR-8 ovarian = system: OVCAR-8 ovarian
PC-3 prostate = system: PC-3 prostate
RPMI-8226 leukemia = system: RPMI-8226 leukemia
RXF 393 renal = system: RXF 393 renal
SF-268 CNS = system: SF-268 CNS
SF-295 CNS = system: SF-295 CNS
SF-539 CNS = system: SF-539 CNS
SK-MEL-2 melanoma = system: SK-MEL-2 melanoma
SK-MEL-28 melanoma = system: SK-MEL-28 melanoma
SK-MEL-5 melanoma = system: SK-MEL-5 melanoma
SK-OV-3 ovarian = system: SK-OV-3 ovarian
SN12C renal = system: SN12C renal
SNB-19 CNS = system: SNB-19 CNS
SNB-75 CNS = system: SNB-75 CNS
SR leukemia = system: SR leukemia
T-47D breast = system: T-47D breast
TK-10 renal = system: TK-10 renal
U251 CNS = system: U251 CNS
UACC-257 melanoma = system: UACC-257 melanoma
UACC-62 melanoma = system: UACC-62 melanoma
UO-31 renal = system: UO-31 renal
MOLT-4 leukemia = system: MOLT-4 leukemia
SW-620 colon = system: SW-620 colon

For `O=c1oc2ccccc2c(Nc2ccc3c(c2)Sc2ccccc2O3)c1[N+](=O)[O-]`, the TGI (786-0 renal) was 53.1 µM, the TGI (A549 NSCLC) was greater than 100 µM and the TGI (ACHN renal) was 44.7 µM. It also gave a TGI (BT-549 breast) of 85.4 µM, a TGI (CAKI-1 renal) greater than 100 µM and a TGI (CCRF-CEM leukemia) of 81 µM. The TGI (COLO 205 colon) was 32.1 µM, the TGI (DU-145 prostate) was greater than 100 µM and the TGI (EKVX NSCLC) was 90.6 µM. The TGI (HCC-2998 colon) was 39.9 µM, the TGI (HCT-116 colon) was greater than 100 µM and the TGI (HCT-15 colon) was greater than 100 µM. For the same molecule, the TGI (HL-60(TB) leukemia) was 49.7 µM, the TGI (HOP-62 NSCLC) was greater than 100 µM and the TGI (HOP-92 NSCLC) was 71.2 µM. For the same molecule, the TGI (HS 578T breast) was greater than 100 µM, the TGI (HT29 colon) was 65.9 µM and the TGI (IGROV1 ovarian) was greater than 100 µM. It also gave a TGI (K-562 leukemia) of 57.9 µM, a TGI (KM12 colon) of 94.3 µM and a TGI (LOX IMVI melanoma) greater than 100 µM. It also gave a TGI (M14 melanoma) greater than 100 µM, a TGI (MALME-3M melanoma) of 65.7 µM and a TGI (MCF7 breast) of 43 µM. It also gave a TGI (MDA-MB-231 breast) of 47.9 µM, a TGI (MDA-MB-435) greater than 100 µM and a TGI (MDA-N) greater than 100 µM. For the same molecule, the TGI (NCI-H226 lung) was 76.5 µM, the TGI (NCI-H23 lung) was 86.7 µM and the TGI (NCI-H460 lung) was 55.3 µM. It also gave a TGI (NCI-H522 lung) of 48 µM, a TGI (NCI/ADR-RES ovarian) greater than 100 µM and a TGI (OVCAR-3 ovarian) of 47.5 µM. For the same molecule, the TGI (OVCAR-4 ovarian) was greater than 100 µM, the TGI (OVCAR-5 ovarian) was greater than 100 µM and the TGI (OVCAR-8 ovarian) was greater than 100 µM. For the same molecule, the TGI (PC-3 prostate) was 38.9 µM, the TGI (RPMI-8226 leukemia) was 37.8 µM and the TGI (RXF 393 renal) was 61.9 µM. For the same molecule, the TGI (SF-268 CNS) was greater than 100 µM, the TGI (SF-295 CNS) was 60.6 µM and the TGI (SF-539 CNS) was 85 µM. The TGI (SK-MEL-2 melanoma) was 54.7 µM, the TGI (SK-MEL-28 melanoma) was 73.3 µM and the TGI (SK-MEL-5 melanoma) was 32.4 µM. The TGI (SK-OV-3 ovarian) was greater than 100 µM, the TGI (SN12C renal) was greater than 100 µM and the TGI (SNB-19 CNS) was greater than 100 µM. It also gave a TGI (SNB-75 CNS) of 58.3 µM, a TGI (SR leukemia) of 57.3 µM and a TGI (T-47D breast) of 69.7 µM. It also gave a TGI (TK-10 renal) of 53.9 µM, a TGI (U251 CNS) of 41.7 µM and a TGI (UACC-257 melanoma) of 55.7 µM. For the same molecule, the TGI (UACC-62 melanoma) was greater than 100 µM and the TGI (UO-31 renal) was greater than 100 µM.
`COc1cc2c(cc1OCCCCCCCCCCN1C(=O)c3cccc4cccc(c34)C1=O)N=C[C@@H]1CCCN1C2=O` gave a TGI (786-0 renal) of 55.9 µM, a TGI (A549 NSCLC) of 82.4 µM and a TGI (ACHN renal) of 30 µM. For the same molecule, the TGI (BT-549 breast) was 20.9 µM, the TGI (CAKI-1 renal) was 28.9 µM and the TGI (COLO 205 colon) was 15.9 µM. The TGI (DU-145 prostate) was 34.4 µM, the TGI (EKVX NSCLC) was 14.4 µM and the TGI (HCC-2998 colon) was 27.5 µM. The TGI (HCT-116 colon) was greater than 100 µM, the TGI (HCT-15 colon) was 16.9 µM and the TGI (HL-60(TB) leukemia) was 43.2 µM. It also gave a TGI (HOP-62 NSCLC) greater than 100 µM, a TGI (HS 578T breast) of 75.3 µM and a TGI (HT29 colon) of 29.3 µM. It also gave a TGI (IGROV1 ovarian) of 18.4 µM, a TGI (K-562 leukemia) of 74.7 µM and a TGI (KM12 colon) of 50.2 µM. For the same molecule, the TGI (LOX IMVI melanoma) was 4.99 µM, the TGI (M14 melanoma) was 54.6 µM and the TGI (MALME-3M melanoma) was 34 µM. The TGI (MCF7 breast) was 9.26 µM, the TGI (MDA-MB-231 breast) was 20.4 µM and the TGI (MDA-MB-435) was 18.8 µM. For the same molecule, the TGI (MDA-N) was 30 µM, the TGI (MOLT-4 leukemia) was 5.76 µM and the TGI (NCI-H226 lung) was 5.25 µM. For the same molecule, the TGI (NCI-H23 lung) was 22.4 µM, the TGI (NCI-H460 lung) was 78 µM and the TGI (NCI-H522 lung) was 28.9 µM. For the same molecule, the TGI (NCI/ADR-RES ovarian) was 14.4 µM, the TGI (OVCAR-3 ovarian) was 20.3 µM and the TGI (OVCAR-4 ovarian) was 6.11 µM. For the same molecule, the TGI (OVCAR-5 ovarian) was 61.2 µM, the TGI (OVCAR-8 ovarian) was 24.7 µM and the TGI (PC-3 prostate) was 12.3 µM. For the same molecule, the TGI (RPMI-8226 leukemia) was 4 µM, the TGI (RXF 393 renal) was 10.1 µM and the TGI (SF-268 CNS) was 37.3 µM. It also gave a TGI (SF-295 CNS) of 27.4 µM, a TGI (SF-539 CNS) of 3.21 µM and a TGI (SK-MEL-2 melanoma) of 20.3 µM. The TGI (SK-MEL-28 melanoma) was 33 µM, the TGI (SK-MEL-5 melanoma) was 22.8 µM and the TGI (SK-OV-3 ovarian) was 19.8 µM. For the same molecule, the TGI (SN12C renal) was 18.3 µM, the TGI (SNB-19 CNS) was 57.6 µM and the TGI (SNB-75 CNS) was 21.3 µM. The TGI (SR leukemia) was 3.84 µM, the TGI (SW-620 colon) was 19 µM and the TGI (T-47D breast) was greater than 100 µM. The TGI (TK-10 renal) was greater than 100 µM, the TGI (U251 CNS) was 13.4 µM and the TGI (UACC-257 melanoma) was 37.3 µM. The TGI (UACC-62 melanoma) was 24.8 µM and the TGI (UO-31 renal) was 28.5 µM.
